Assay results reported in PubChem BioAssay (NCI).
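Step 1: Grow cells in 96-well plates. Step 2: Expose to compound for 48 hours at 5 concentrations. Step 3: Interpolate endpoints linearly; if unreached, use highest concentration. The concentration for 50% growth inhibition is given as GI50. TGI is the concentration that stops growth completely.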

What was measured:
Test in all cases: growth of human tumour cells (NCI), 48 h
[1] = tested on: LOX IMVI melanoma
[2] = tested on: SK-MEL-2 melanoma
[3] = tested on: SF-539 CNS
[4] = tested on: MCF7 breast
[5] = tested on: A498 renal
[6] = tested on: RXF 393 renal
[7] = tested on: SK-MEL-5 melanoma
[8] = tested on: HOP-92 NSCLC
[9] = tested on: SNB-19 CNS
[10] = tested on: UACC-257 melanoma
[11] = tested on: EKVX NSCLC
[12] = tested on: KM12 colon
[13] = tested on: MALME-3M melanoma
[14] = tested on: SNB-75 CNS
[15] = tested on: HS 578T breast
[16] = tested on: A549 NSCLC
[17] = tested on: SR leukemia
[18] = tested on: HOP-62 NSCLC
[19] = tested on: NCI-H23 lung
[20] = tested on: NCI-H226 lung
[21] = tested on: CCRF-CEM leukemia
[22] = tested on: OVCAR-4 ovarian
[23] = tested on: M14 melanoma
[24] = tested on: HCT-116 colon
[25] = tested on: OVCAR-8 ovarian
[26] = tested on: SF-268 CNS
[27] = tested on: RPMI-8226 leukemia
[28] = tested on: ACHN renal
[29] = tested on: T-47D breast
[30] = tested on: NCI-H522 lung
[31] = tested on: SW-620 colon
[32] = tested on: IGROV1 ovarian
[33] = tested on: SF-295 CNS
[34] = tested on: HCT-15 colon
[35] = tested on: MOLT-4 leukemia
[36] = tested on: NCI-H460 lung
[37] = tested on: HT29 colon
[38] = tested on: OVCAR-3 ovarian
[39] = tested on: COLO 205 colon
[40] = tested on: U251 CNS
[41] = tested on: SN12C renal
[42] = tested on: DU-145 prostate
[43] = tested on: MDA-MB-231 breast
[44] = tested on: PC-3 prostate
[45] = tested on: MDA-MB-435
[46] = tested on: NCI/ADR-RES ovarian
[47] = tested on: OVCAR-5 ovarian
[48] = tested on: HCC-2998 colon
[49] = tested on: UACC-62 melanoma
[50] = tested on: UO-31 renal
[51] = tested on: SK-MEL-28 melanoma
[52] = tested on: HL-60(TB) leukemia
[53] = tested on: CAKI-1 renal
[54] = tested on: K-562 leukemia
[55] = tested on: TK-10 renal
[56] = tested on: 786-0 renal
[57] = tested on: BT-549 breast
[58] = tested on: SK-OV-3 ovarian

`CCC(CC(C)C)Nc1ccc(NC(CC)CC(C)C)cc1` (configuration not stated) showed a GI50 [1] of 14.9 µM, a TGI [1] of 35.1 µM and a GI50 [2] of 12.9 µM. The TGI [2] was 27.4 µM, the GI50 [3] was 17.1 µM and the TGI [3] was 33 µM. For the same compound, the GI50 [4] was 15.2 µM, the TGI [4] was 28.4 µM and the GI50 [5] was 23.8 µM. The TGI [5] was 95.8 µM, the GI50 [6] was 14.9 µM and the TGI [6] was 28.1 µM. It also gave a GI50 [7] of 15 µM, a TGI [7] of 28.2 µM and a GI50 [8] of 10.7 µM. For the same compound, the TGI [8] was 24.7 µM, the GI50 [9] was 15.9 µM and the TGI [9] was 29.4 µM. The GI50 [10] was 13.3 µM, the TGI [10] was 28.4 µM and the GI50 [11] was 16.7 µM. It also gave a TGI [11] of 37.6 µM, a GI50 [12] of 15.6 µM and a TGI [12] of 30.2 µM. The GI50 [13] was 14.7 µM, the TGI [13] was 34.3 µM and the GI50 [14] was 15.4 µM. The TGI [14] was 38.2 µM, the GI50 [15] was 25 µM and the TGI [15] was > 100 µM. For the same compound, the GI50 [16] was 24.8 µM, the TGI [16] was 65.6 µM and the GI50 [17] was 15.1 µM. For the same compound, the TGI [17] was 39.7 µM, the GI50 [18] was 18.6 µM and the TGI [18] was 33.3 µM. For the same compound, the GI50 [19] was 18.2 µM, the TGI [19] was 46.3 µM and the GI50 [20] was 15.3 µM. For the same compound, the TGI [20] was 29.9 µM, the GI50 [21] was 6.6 µM and the TGI [21] was 27.8 µM. It also gave a GI50 [22] of 13.9 µM, a TGI [22] of 26.8 µM and a GI50 [23] of 16.8 µM. For the same compound, the TGI [23] was 34.7 µM, the GI50 [24] was 14.1 µM and the TGI [24] was 28.3 µM. It also gave a GI50 [25] of 18.2 µM, a TGI [25] of 34.2 µM and a GI50 [26] of 16 µM. The TGI [26] was 30.6 µM, the GI50 [27] was 3.85 µM and the TGI [27] was 18.5 µM. For the same compound, the GI50 [28] was 15.3 µM, the TGI [28] was 28.5 µM and the GI50 [29] was 12.7 µM. For the same compound, the TGI [29] was 26.7 µM, the GI50 [30] was 3.82 µM and the TGI [30] was 15.1 µM. The GI50 [31] was 15.6 µM, the TGI [31] was 30.1 µM and the GI50 [32] was 27.1 µM. The TGI [32] was 78.7 µM, the GI50 [33] was 23 µM and the TGI [33] was 61.4 µM. For the same compound, the GI50 [34] was 14.8 µM, the TGI [34] was 27.9 µM and the GI50 [35] was 17.8 µM. The TGI [35] was 44.5 µM, the GI50 [36] was 17.5 µM and the TGI [36] was 40.9 µM. It also gave a GI50 [37] of 15.1 µM, a TGI [37] of 30.5 µM and a GI50 [38] of 13.3 µM. The TGI [38] was 26 µM, the GI50 [39] was 11 µM and the TGI [39] was 23 µM. It also gave a GI50 [40] of 13 µM, a TGI [40] of 26.6 µM and a GI50 [41] of 16 µM. It also gave a TGI [41] of 32.2 µM, a GI50 [42] of 26.5 µM and a TGI [42] of 82.1 µM. It also gave a GI50 [43] of 16.4 µM, a TGI [43] of 33.2 µM and a GI50 [44] of 4 µM. It also gave a TGI [44] of 16.3 µM, a GI50 [45] of 18.2 µM and a TGI [45] of 40 µM. It also gave a GI50 [46] of 17.6 µM, a TGI [46] of 39.8 µM and a GI50 [47] of 15.6 µM. For the same compound, the TGI [47] was 29.1 µM, the GI50 [48] was 19.3 µM and the TGI [48] was 36 µM. For the same compound, the GI50 [49] was 10.6 µM, the TGI [49] was 24.3 µM and the GI50 [50] was 14.8 µM. The TGI [50] was 29.3 µM, the GI50 [51] was 13.7 µM and the TGI [51] was 28.1 µM. For the same compound, the GI50 [52] was 10.6 µM, the TGI [52] was 30.2 µM and the GI50 [53] was 40.2 µM. For the same compound, the TGI [53] was > 100 µM, the GI50 [54] was 10.7 µM and the TGI [54] was 37.8 µM. For the same compound, the GI50 [55] was 17.7 µM and the TGI [55] was 32.3 µM.
In the case of `Nc1[nH]c(=O)ncc1CO`, the GI50 [1] is reported as > 100 µM, the TGI [1] is reported as > 100 µM and the GI50 [2] is reported as > 100 µM. For the same compound, the TGI [2] was > 100 µM, the GI50 [3] was > 100 µM and the TGI [3] was > 100 µM. For the same compound, the GI50 [4] was > 100 µM, the TGI [4] was > 100 µM and the GI50 [5] was > 100 µM. The TGI [5] was > 100 µM, the GI50 [6] was > 100 µM and the TGI [6] was > 100 µM. For the same compound, the GI50 [7] was > 100 µM, the TGI [7] was > 100 µM and the GI50 [8] was > 100 µM. The TGI [8] was > 100 µM, the GI50 [56] was > 100 µM and the TGI [56] was > 100 µM. For the same compound, the GI50 [9] was > 100 µM, the TGI [9] was > 100 µM and the GI50 [10] was > 100 µM. For the same compound, the TGI [10] was > 100 µM, the GI50 [57] was > 100 µM and the TGI [57] was > 100 µM. The GI50 [12] was > 100 µM, the TGI [12] was > 100 µM and the GI50 [13] was > 100 µM. The TGI [13] was > 100 µM, the GI50 [14] was > 100 µM and the TGI [14] was > 100 µM. For the same compound, the GI50 [15] was > 100 µM, the TGI [15] was > 100 µM and the GI50 [16] was > 100 µM. For the same compound, the TGI [16] was > 100 µM, the GI50 [17] was > 100 µM and the TGI [17] was > 100 µM. For the same compound, the GI50 [18] was > 100 µM, the TGI [18] was > 100 µM and the GI50 [19] was > 100 µM. For the same compound, the TGI [19] was > 100 µM, the GI50 [20] was > 100 µM and the TGI [20] was > 100 µM. For the same compound, the GI50 [21] was > 100 µM, the TGI [21] was > 100 µM and the GI50 [22] was > 100 µM. For the same compound, the TGI [22] was > 100 µM, the GI50 [23] was > 100 µM and the TGI [23] was > 100 µM. For the same compound, the GI50 [24] was > 100 µM, the TGI [24] was > 100 µM and the GI50 [25] was > 100 µM. For the same compound, the TGI [25] was > 100 µM, the GI50 [26] was > 100 µM and the TGI [26] was > 100 µM. For the same compound, the GI50 [58] was > 100 µM, the TGI [58] was > 100 µM and the GI50 [27] was > 100 µM. The TGI [27] was > 100 µM, the GI50 [28] was > 100 µM and the TGI [28] was > 100 µM. The GI50 [29] was > 100 µM, the TGI [29] was > 100 µM and the GI50 [30] was > 100 µM. For the same compound, the TGI [30] was > 100 µM, the GI50 [31] was > 100 µM and the TGI [31] was > 100 µM. For the same compound, the GI50 [32] was > 100 µM, the TGI [32] was > 100 µM and the GI50 [33] was > 100 µM. The TGI [33] was > 100 µM, the GI50 [34] was > 100 µM and the TGI [34] was > 100 µM. For the same compound, the GI50 [35] was > 100 µM, the TGI [35] was > 100 µM and the GI50 [36] was > 100 µM. For the same compound, the TGI [36] was > 100 µM, the GI50 [37] was > 100 µM and the TGI [37] was > 100 µM. The GI50 [38] was > 100 µM, the TGI [38] was > 100 µM and the GI50 [39] was > 100 µM. For the same compound, the TGI [39] was > 100 µM, the GI50 [40] was > 100 µM and the TGI [40] was > 100 µM. For the same compound, the GI50 [41] was > 100 µM, the TGI [41] was > 100 µM and the GI50 [42] was > 100 µM. The TGI [42] was > 100 µM, the GI50 [43] was > 100 µM and the TGI [43] was > 100 µM. For the same compound, the GI50 [44] was > 100 µM, the TGI [44] was > 100 µM and the GI50 [45] was > 100 µM. For the same compound, the TGI [45] was > 100 µM, the GI50 [47] was > 100 µM and the TGI [47] was > 100 µM. The GI50 [48] was > 100 µM, the TGI [48] was > 100 µM and the GI50 [49] was > 100 µM. The TGI [49] was > 100 µM, the GI50 [50] was > 100 µM and the TGI [50] was > 100 µM. For the same compound, the GI50 [51] was > 100 µM, the TGI [51] was > 100 µM and the GI50 [52] was > 100 µM. For the same compound, the TGI [52] was > 100 µM, the GI50 [53] was > 100 µM and the TGI [53] was > 100 µM. The GI50 [54] was > 100 µM, the TGI [54] was > 100 µM and the GI50 [55] was > 100 µM. For the same compound, the TGI [55] was > 100 µM.
